# Patent EP0030835A1, “Derivatives of 2-substituted-6-phenyl-3(2H)pyridazinone, their production and pharmaceutical compositions containing them” (MORISHITA PHARMACEUTICAL CO. LTD., priority 1979, dated 1981)
# Legend:
# gastric secretion = assay: Effects on gastric secretion (pylorus-ligated rats); format: in vivo; conditions: Rattus norvegicus, intraduodenal, 100 mg/kg intraduodenally, pylorus ligature, gastric juice collected after 7 hours, read-out: Rate of inhibition, Gastric secretion (%)
# Description: One group of 10 rats of body weight of from 1.5x10^-1 to 1.8x10^-1 kg (150 to 180g) was subjected to ligature of the pylorus after 24-hours fasting, under ether-anaesthesia, and one of the compounds of the present invention or the reference compound was administered as a dispersion in an aqueous 1% CMC solution into the duodenum. Only an aqueous 1% CMC solution was administered into the duodenum of a control group of 10 rats. After 7 hours from closing the abdomen, the stomach was extirpated under ether-anaesthesia to collect the gastric juice that had accumulated in it. The inhibiting effect of each drug on gastric secretion was calculated by the following formula: [formula] wherein Amount of gastric juice of control group = A ml Amount of gastric juice of test group = B ml The results are also shown in Table 1.
# (§1) Note: ^* The structure of the compounds of the invention is expressed by the formula: [drawing 8] **The structure of the reference compound is expressed by the formula: [drawing 9] **Experiments were carried out on rats and the rate of inhibition was obtained at a dose of 10^-4 kg/kg (100 mg/kg) orally or intraduodenally.
# Shay's ulcer = assay: Shay's ulcer; format: in vivo; conditions: Rattus norvegicus, intraduodenal; rats, 100 mg/kg intraduodenally, pylorus ligature, 18 hours, ulcer area of forestomach; read-out: Rate of inhibition, Shay's ulcer (%)
# Description: Two groups of rats of body weight of from 2x10^-1 to 2.5x10^-1 kg (200 to 250 g), each group consisting of 10 animals, were treated under ether-anaesthesia by ligature of the pylorus after 48 hour-fasting (during which water was taken ad lib.) and, just after the operation, an aqueous suspension of one of the compounds of the invention in a 1% solution of carboxymethylcellulose (hereinafter referred to as CMC) was administered intraduodenally to the rats in one group at a dose of 10^-4 kg/kg (100 mg/kg). The other group (control) was given an aqueous 1% solution of CMC intraduodenally. After keeping these animals for 18 hours without giving them any food and water, their stomachs were extirpated under ether anaesthesia and the area (m^2x10^-6) (mm ) of the ulcer generated on the forestomach part of the rats was determined under an anatomical microscope. The total area of the ulcers of one group was represented by an ulcer coefficient. The rate of inhibition of the occurrence of ulcers (%) was obtained by calculation according to the following formula: Rate of inhibition of the occurrence of ulcers (%)= 100 x (Ulcer coeff. of control qp) - (Ulcer coeff. of test qp) (ulcer coeff.of control gp)
# as §1
# Stress ulcer = Stress ulcer (restriction in water); format: in vivo; conditions: Rattus norvegicus, po; rats, 100 mg/kg orally, immersed in water at 23°C for 20 hours, length of erosion; read-out: Rate of inhibition, Stress ulcer (%)
# Description: One group of 10 rats of body weight of from 2x10^-1 to 2.5x10^-1kg (200 to 250 g) after oral administration of an aqueous suspension of the compound of the invention being tested in a 1% CMC solution at a dose of 10^-4 kg/kg (100 mg/kg) were kept in stress cages and immersed in water at a temperature of 23°C to the depth of their thorax for 20 hours to give a stress of restriction in water. Another group of 10 rats of the same strain (a control group) were also treated with the same stress, but after administration of an aqueous 1% CMC solution.
# Just after removing the rats from the water, they were clubbed to death and their stomachs were extirpated. Then, about 1.5x10^-5m^3 (15 ml) of an aqueous 1% formaldehyde solution was injected into each stomach. After maintaining the formaldehyde solution in the stomachs for 10 minutes to enable the solution to contact to the inner stomach wall, each stomach was cut open along the greater curvature to examine the length of erosion (in 10" m (mm)) generated on the mucosa of the glandular stomach region under an anatomical microscope. The sum of the length of erosion for rats of one group was represented by the ulcer coefficient. The rate of inhibition of the occurrence of the ulcer by each compound was obtained by the same method as in 1-1), the results being shown also in Table 1.
# as §1
# Aspirin-induced ulcer = assay: Aspirin-induced ulcer; format: in vivo; conditions: Rattus norvegicus; rats, 100 mg/kg intraduodenally, aspirin 100 mg/kg orally, 7 hours, length of erosion; read-out: Rate of inhibition, Aspirin-ulcer (%)
# Description: One group of 10 rats of body weight of from 2x10^-1 to 2.5x10^-1 kg (200 to 250 g) was subjected to laparotomy under ether-anaesthesia, after 24 hour-fasting with ad lib. taking water, to have ligature of their pylorus (according to Okabe et al., 1974). Just after the ligature, an aqueous suspension of one of the compounds of the invention in a 1% CMC solution was intraduodenally administered to the rats at a dose of 10^-4 kg/kg (100 mg/kg). After closing the abdomen, an aqueous dispersion of aspirin in a 1% CMC solution was orally administered at a dose of 10^-4 kg/kg (100 mg/kg). After 7 hours of the aspirin administration, the stomach was extirpated under ether-anaesthesia, and the length (in 10^-3m (mm)) of erosions generated on the mucosa of the glandular stomach region was measured. The sum of the length of erosion on rats of one group was represented by the ulcer coefficient. The same procedures were carried out on another group of 10 rats of the same strain (a control group) except that an aqueous 1% CMC solution was administered instead of the aqueous dispersion of one of the compounds of the present invention. The rate of inhibition of the occurrence of ulcers was obtained by calculation as in 1-2), the results being also shown in Table 1.
# as §1
# [1] = Acute oral toxicity (LD50 p.o.); conditions: rat, in vivo, rats, read-out: Acute oral toxicity (LD50,kgx10^-6/kg)
SMILES,inhibition in vivo at 100 mg/kg (gastric secretion) [%],inhibition in vivo at 100 mg/kg (Shay's ulcer) [%],inhibition in vivo at 100 mg/kg (Stress ulcer) [%],inhibition in vivo at 100 mg/kg (Aspirin-induced ulcer) [%],LD50 [1] [mg/kg]
"CN=C(NC#N)NCCCCn1nc(-c2ccccc2)ccc1=O [Compound No. 44, N-cyano-N'-[4-(3-oxo-6-phenyl-2-pyridazinyl)butyl]-N""-methylguanidine]",77.6,97.8,71.2,97.5,> 5000
"CCN=C(NC#N)NCCCn1nc(-c2ccccc2)ccc1=O [Compound No. 48, N-cyano-N'-[3-(3-oxo-6-phenyl-2-pyridazinyl)propyl]-N""-ethylguanidine]",51.9,76.4,70.5,93.8,> 5000
"CCN=C(NC#N)NCCCCn1nc(-c2ccccc2)ccc1=O [Compound No. 50, N-cyano-N'-[4-(3-oxo-6-phenyl-2-pyridazinyl)butyl]-N""-ethylguanidine]",59.2,73.4,77.2,86.2,> 5000
"CCN=C(NC#N)NCCCCCn1nc(-c2ccccc2)ccc1=O [Compound No. 53, N-cyano-N'-[5-(3-oxo-6-phenyl-2-pyridazinyl)pentyl]-N""-ethylguanidine]",68.5,93.2,79,90.6,> 5000
"CN=C(NC#N)NCCCCn1nc(-c2ccc(Cl)cc2)ccc1=O [Compound No. 59, N-cyano-N'-[4-{6-(4-chlorophenyl)-3-oxo-2-pyridazinyl}butyl]-N""- methylguanidine]",63.1,61.5,72.1,89.5,4800
"CN=C(NC#N)NCCCCn1nc(-c2ccc(C)cc2)ccc1=O [Compound No. 65, N-cyano-N'-[4-{6-(4-methylphenyl)-3-oxo-2-pyridazinyl}butyl]-N""- methylguanidine]",58.5,70.3,70.5,91.4,> 5000
"CN=C(NC#N)NCCCCn1nc(-c2ccccc2)cc(C)c1=O [Compound No. 81, N-cyano-N'-[4-(4-methyl-3-oxo-6-phenyl-2-pyridazinyl)butyl]-N""- methylguanidine]",54.2,72.4,63.4,90.8,> 5000
"CN=C(NC#N)NCCSCn1nc(-c2ccccc2)ccc1=O [Compound No. 138, N-cyano-N'-[2-{(3-oxo-6-phenyl-2-pyridazinyl)methylthio}ethyl]-N""-methylguanidine]",70.2,88.3,68.2,90.2,4800
